Laboratory results reported in patent publication US20180110777A1, “METHOD FOR REGULATION OF TELOMERE LENGTH” (The Johns Hopkins University, priority 2015, published 2018).

Tests used:
[1] = system: SL13 cells; test: Telomere Southern blot after lentiviral overexpression of mTR and mTERT; assay type: cell-based, mouse; conditions: SL13 cells transduced with lentivirus expressing mTR and mTERT; day 6
[2] = system: SL13 cells; test: ADDIT assay (addition of de novo initiated telomeres; modified STELA with PacBio sequencing or Southern blot); assay type: cell-based, mouse
Description: To critically access the role of ATM, as well as other potential telomere length regulators, an assay was developed that measures telomere repeat addition in cells over 48 hr. CAST/EiJ mouse fibroblast cell line was engineered to (SL13) contain a conditional mTR allele and a modified chromosome 4 (chr4) with an internal 480 bp telomere ‘seed’ sequence followed by a unique I-Sce1 endonuclease cut site (FIG. 5 and see Experimental Procedures). The internal telomere ‘seed’ sequence can be conditionally exposed by I-Sce1 endonuclease cleavage (FIG. 1A) and then be elongated by telomerase in a manner similar to de novo telomere addition shown to occur in yeast (Diede and Gottschling, 1999, Cell 99, 723-733).
To better detect the telomere elongation, the single telomere length analysis (STELA) assay was modified (Baird et al., 2004, Hum Mol Genet 13, 1515-1524), to measure telomere length at the in vivo cut chr4. The linker, ‘telorette’, was ligated to the telomere and PCR amplified the telomere using the ‘teltail’ primer and an internal primer in the hygromycin resistance (HYG) sequence on the engineered chromosome (FIG. 1B). To determine the un-extended cut chromosome length in vitro, a different linker was designed, ‘IScerette’, which anneals to the 4-nt 3′ overhang created by the I-Sce1 endonuclease (FIG. 1B). PCR using the forward primers, F1 or F2, and the teltail generated products of predicted size on a Southern blot (data not shown).
To further verify telomere addition had occurred, the PCR products were sequenced with Pacific Biosciences (PacBio®) sequencing. PacBio® produces long sequence reads that allowed us to determine telomere length. While sequencing errors, predominantly point insertions and deletions, occurred as expected, the telomere repeats were easily recognizable. To assure products were full length, the PacBio® reads were filtered to examine only those that had the unique HYG sequence followed by the seed telomere repeat sequence and also had the ‘teltail’ primer sequence (FIG. 6). […] The I-Sce1 site is shown boxed (FIG. 1C). Three regions of variant telomere repeats were noted, evident as darker stripes in the aligned reads, that were present in the original SL13 clone, and served as useful sequence reference points (FIG. 1C). If there were degradation past these variants and then new TTAGGG (SEQ ID NO: 100) repeat synthesis in vivo, these landmarks would be removed.
The sequence length distribution in the ADDIT assay represents telomere elongation, incomplete telomere replication and in vivo end resection (as well as PacBio® sequencing errors).
Cell lines were grown in DMEM (Gibco) supplemented with 1% Penicillin/Streptomycin/Glutamine (PSG) and 10% heat inactivated FBS (Invitrogen). SL13 cells were grown in DMEM (Gibco) supplemented with 1% PSG and 10% Tet system approved FBS (Clontech, #631107). Cells were treated with ATM inhibitor KU55933 (R&D Systems, #3544), ATR inhibitor VE821 (Selleckchem, #S8007) or PARP1 inhibitor Olaparib (Selleckchem, #1060) at indicated concentrations or DMSO as a control. For the ADDIT assay, SL13 cells were treated with final concentration 2 μg/ml of doxycycline for typically 48 hr or as indicated.
The original STELA protocol used for human cells (Baird et al., 2004, Hum Mol Genet 13, 1515-1524) was modified to measure telomere lengths on the cut end of chr4 in SL13 cells. Briefly, genomic DNA was extracted using Puregene Core Kit A™ (Qiagen). 4 μg of genomic DNA was digested with Sph1 (NEB) and later diluted to 10 ng/μl in water. For the in vitro IScerette sample, genomic DNA was digested with SphI and I-SceI (NEB) prior to ligation. The ligation was carried out at 35° C. for at least 12 hr in a volume of 10 μl containing 10 ng of digested genomic DNA, 0.9 μM of telorette linkers or IScerette linker and 0.5 U of T4 DNA ligase (NEB) in 1×T4 ligation buffer. […]

In the case of CS(=O)(=O)c1ccc(-c2cnc(N)c(C(=O)Nc3ccccc3)n2)cc1 [VE821], the “telomere elongation on overexpression of telomerase (Southern blot)” value [1] is reported as “subtle but reproducible decreased elongation at day 6”.

With CN[C@H]1CCc2cc(OC)c(OC)c(OC)c2-c2ccc(OC)c(=O)cc21 [colcemid] the “de novo telomere addition / telomere elongation in ADDIT assay (in words)” value ([2]; PacBio sequencing of STELA products, compared to controls) was “No significant difference of de novo elongation”.

In the case of CN1CC[C@H](c2c(O)cc(O)c3c(=O)cc(-c4ccccc4Cl)oc23)[C@H](O)C1 [flavopiridol], the “percentage of reads with de novo telomere addition” value ([2]; 400 nM flavopiridol, 48 hrs, DMSO control 24%) is reported as “less than 2%” and the “elongation in Southern blot analysis of STELA PCR products” value ([2]; flavopiridol-treated sample) is reported as “minimal elongation beyond the chr4 I-Sce1-induced cut base line”.
